Where “and” joins values, the source holds several entries; their conditions need not be identical. Identical values can stand only once.
Key:
[1] = tested on: SARS-CoV-2, isolate USA-WA1/2020; assay: microbe, parasite or virus in culture; assay type: cell-based; conditions: HeLa-ACE2 SARS-CoV-2 antiviral effect without P-gp inhibitor; for EC50: read-out: ec50; for EC90: read-out: ec90
[2] = Hepatic microsomal stability, MLM; assay type: in vitro ADME; conditions: In vitro mouse liver microsomal stability; for perc_remaining_no_cofactor: no cofactor
[3] = In vitro rat hepatocyte stability; assay type: in vitro ADME
Source text: Supplement media-1.zip/Hepatocyte_Stability.csv, table | column: clint; t_half

CYP = CYP inhibition; assay type: in vitro ADME; conditions: In vitro CYP inhibition pooled; for potency: potency class in words
Source text: Supplement media-1.zip/CYP_Inhibition.csv, table | column: ic50; potency

5-HT transporter (h) = target: T1, 5-HT transporter (h) (Homo sapiens, UniProt P31645); assay: In vitro CEREP profiling, 5-HT transporter (h) (antagonist radioligand); conditions: test compound concentration 10 uM
T1 construct: purchased Eurofins Cerep (SafetyScreen44), recognised from the panel format
Source text: (§1) Supplement media-1.zip/Safety_Panel_Profile.csv, table | column: perc_inhibition

5-HT2A (h) = target: T2, 5-HT2A (h) (Homo sapiens, UniProt P28223); assay: In vitro CEREP profiling, 5-HT2A (h) (agonist radioligand); assay type: binding; conditions: test compound concentration 10 uM
T2 construct: purchased Eurofins Cerep (SafetyScreen44), recognised from the panel format
Source text: as §1

alpha2A (h) = target: T3, alpha2A (h) (Homo sapiens, UniProt P08913); assay: In vitro CEREP profiling, alpha2A (h) (antagonist radioligand); assay type: binding; conditions: test compound 10 uM
T3 construct: purchased Eurofins Cerep (SafetyScreen44), recognised from the panel format
T3 sequence (P08913 1-465): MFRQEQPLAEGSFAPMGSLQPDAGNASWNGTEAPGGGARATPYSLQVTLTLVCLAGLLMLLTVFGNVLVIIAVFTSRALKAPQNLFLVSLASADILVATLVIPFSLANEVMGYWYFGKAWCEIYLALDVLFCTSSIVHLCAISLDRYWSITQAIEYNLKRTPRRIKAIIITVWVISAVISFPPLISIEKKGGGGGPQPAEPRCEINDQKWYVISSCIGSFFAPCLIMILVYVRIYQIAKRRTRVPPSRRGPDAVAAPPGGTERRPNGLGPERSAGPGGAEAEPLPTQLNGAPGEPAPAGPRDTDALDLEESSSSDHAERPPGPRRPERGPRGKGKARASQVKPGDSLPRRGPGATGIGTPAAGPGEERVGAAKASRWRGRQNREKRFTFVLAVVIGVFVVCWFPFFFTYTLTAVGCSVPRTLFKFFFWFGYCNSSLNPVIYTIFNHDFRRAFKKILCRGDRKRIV
Source text: as §1

PDE3A (h) = target: T4, PDE3A (h) (Homo sapiens, UniProt Q14432); assay: In vitro CEREP profiling, PDE3A (h); assay type: biochemical; conditions: test compound concentration 10 uM; Enzyme and Cell-based assays
T4 construct: purchased Eurofins Cerep (SafetyScreen44), recognised from the panel format
Source text: as §1

GR (h) = target: T5, GR (h) (Homo sapiens, UniProt P04150); assay: In vitro CEREP profiling, GR (h) (agonist radioligand); assay type: binding; conditions: test compound concentration 10 uM
T5 construct: purchased Eurofins Cerep (SafetyScreen44), recognised from the panel format
T5 sequence (P04150 1-777): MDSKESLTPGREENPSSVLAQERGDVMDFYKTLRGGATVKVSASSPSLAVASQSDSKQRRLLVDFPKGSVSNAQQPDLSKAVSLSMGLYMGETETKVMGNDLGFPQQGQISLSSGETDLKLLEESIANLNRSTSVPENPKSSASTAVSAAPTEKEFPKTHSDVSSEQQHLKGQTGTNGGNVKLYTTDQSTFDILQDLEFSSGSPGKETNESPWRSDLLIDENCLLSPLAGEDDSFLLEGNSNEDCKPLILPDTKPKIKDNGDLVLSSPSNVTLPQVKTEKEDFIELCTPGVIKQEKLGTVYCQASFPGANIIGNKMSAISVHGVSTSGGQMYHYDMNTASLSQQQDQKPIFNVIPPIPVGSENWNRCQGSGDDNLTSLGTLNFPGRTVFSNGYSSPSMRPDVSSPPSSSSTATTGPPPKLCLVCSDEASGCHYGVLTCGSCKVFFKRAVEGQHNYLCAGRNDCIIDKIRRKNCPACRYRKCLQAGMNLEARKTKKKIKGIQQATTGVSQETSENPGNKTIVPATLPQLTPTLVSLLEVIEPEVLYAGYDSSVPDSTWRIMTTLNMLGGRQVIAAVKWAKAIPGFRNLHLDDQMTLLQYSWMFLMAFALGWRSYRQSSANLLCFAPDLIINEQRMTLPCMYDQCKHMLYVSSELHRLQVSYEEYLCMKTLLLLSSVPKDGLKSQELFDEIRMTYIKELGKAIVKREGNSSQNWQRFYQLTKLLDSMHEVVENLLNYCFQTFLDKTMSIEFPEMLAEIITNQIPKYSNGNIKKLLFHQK
Source text: as §1

Lck kinase (h) = target: T6, Lck kinase (h) (Homo sapiens, UniProt P06239); assay: In vitro CEREP profiling, Lck kinase (h); assay type: biochemical; conditions: test compound concentration 10 uM; Enzyme and Cell-based assays
T6 construct: purchased Eurofins Cerep (SafetyScreen44), recognised from the panel format
Source text: as §1

CB2 (h) = target: T7, CB2 (h) (Homo sapiens, UniProt P34972); assay: In vitro CEREP profiling, CB2 (h) (agonist radioligand); assay type: binding; conditions: test compound 10 uM
T7 construct: purchased Eurofins Cerep (SafetyScreen44), recognised from the panel format
Source text: as §1

[4] = target: T8, N neuronal alpha4beta2 (h) (Homo sapiens, UniProt P17787+P43681); assay: In vitro CEREP profiling, N neuronal alpha4beta2 (h) (agonist radioligand); assay type: binding; conditions: test compound concentration 10 uM
T8 construct: purchased Eurofins Cerep (SafetyScreen44), recognised from the panel format
Source text: as §1

acetylcholinesterase (h) = target: T9, acetylcholinesterase (h) (Homo sapiens, UniProt P22303); assay: In vitro CEREP profiling, acetylcholinesterase (h); assay type: biochemical; conditions: test compound concentration 10 uM; Enzyme and Cell-based assays
T9 construct: purchased Eurofins Cerep (SafetyScreen44), recognised from the panel format
Source text: as §1

delta (DOP) (h) = target: T10, delta (DOP) (h) (Homo sapiens, UniProt P41143); assay: In vitro CEREP profiling, delta (DOP) (h) (agonist radioligand); assay type: binding; conditions: test compound concentration 10 uM
T10 construct: purchased Eurofins Cerep (SafetyScreen44), recognised from the panel format
Source text: as §1

D1 (h) = target: T11, D1 (h) (Homo sapiens, UniProt P21728); assay: In vitro CEREP profiling, D1 (h) (antagonist radioligand); assay type: binding; conditions: test compound 10 uM
T11 construct: purchased Eurofins Cerep (SafetyScreen44), recognised from the panel format
Source text: as §1

in vitro = conditions: human, hela-ace2 cells, 50.0
[5] = maximum measured response of dose series
[6] = minimum measured response of dose series

T4 sequence (Q14432 whole entry): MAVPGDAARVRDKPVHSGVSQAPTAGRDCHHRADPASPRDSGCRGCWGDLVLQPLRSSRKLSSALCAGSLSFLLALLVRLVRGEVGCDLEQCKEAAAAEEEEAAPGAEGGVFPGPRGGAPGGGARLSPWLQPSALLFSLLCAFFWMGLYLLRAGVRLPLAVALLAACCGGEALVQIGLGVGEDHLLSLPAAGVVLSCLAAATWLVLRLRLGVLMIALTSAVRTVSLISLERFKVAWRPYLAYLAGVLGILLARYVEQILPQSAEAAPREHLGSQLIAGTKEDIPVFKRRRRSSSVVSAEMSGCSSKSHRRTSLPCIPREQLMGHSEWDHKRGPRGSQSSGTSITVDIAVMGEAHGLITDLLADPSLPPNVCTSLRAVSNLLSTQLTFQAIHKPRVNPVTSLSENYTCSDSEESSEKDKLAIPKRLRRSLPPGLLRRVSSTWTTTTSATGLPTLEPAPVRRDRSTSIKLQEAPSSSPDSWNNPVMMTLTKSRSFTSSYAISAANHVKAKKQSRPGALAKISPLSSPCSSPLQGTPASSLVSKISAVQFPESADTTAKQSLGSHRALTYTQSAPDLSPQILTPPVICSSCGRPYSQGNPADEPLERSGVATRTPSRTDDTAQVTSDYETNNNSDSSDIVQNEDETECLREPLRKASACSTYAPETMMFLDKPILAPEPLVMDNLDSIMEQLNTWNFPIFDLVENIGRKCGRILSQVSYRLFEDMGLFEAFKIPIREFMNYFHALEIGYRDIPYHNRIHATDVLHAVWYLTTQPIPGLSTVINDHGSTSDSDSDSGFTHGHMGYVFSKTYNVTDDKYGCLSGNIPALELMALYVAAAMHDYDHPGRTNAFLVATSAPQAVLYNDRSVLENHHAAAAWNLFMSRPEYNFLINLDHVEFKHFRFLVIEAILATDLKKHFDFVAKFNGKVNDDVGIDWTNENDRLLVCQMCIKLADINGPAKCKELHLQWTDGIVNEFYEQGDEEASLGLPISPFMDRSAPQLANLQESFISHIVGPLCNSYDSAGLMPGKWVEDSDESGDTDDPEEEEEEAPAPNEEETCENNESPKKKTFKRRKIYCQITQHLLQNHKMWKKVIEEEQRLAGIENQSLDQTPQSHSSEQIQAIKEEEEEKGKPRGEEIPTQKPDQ
T2 sequence (P28223 whole entry): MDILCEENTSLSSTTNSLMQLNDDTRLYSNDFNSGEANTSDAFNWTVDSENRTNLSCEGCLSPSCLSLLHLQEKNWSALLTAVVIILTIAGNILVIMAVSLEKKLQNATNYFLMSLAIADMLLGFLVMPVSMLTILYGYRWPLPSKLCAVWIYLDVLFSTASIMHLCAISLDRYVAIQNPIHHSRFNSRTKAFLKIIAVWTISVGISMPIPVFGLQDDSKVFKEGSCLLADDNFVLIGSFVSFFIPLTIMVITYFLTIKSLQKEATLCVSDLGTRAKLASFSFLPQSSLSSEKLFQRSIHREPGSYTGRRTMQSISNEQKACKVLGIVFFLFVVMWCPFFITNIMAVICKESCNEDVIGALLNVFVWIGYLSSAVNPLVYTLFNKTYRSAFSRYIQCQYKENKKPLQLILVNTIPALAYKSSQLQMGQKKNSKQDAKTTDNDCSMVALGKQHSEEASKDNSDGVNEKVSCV
T11 sequence (P21728 whole entry): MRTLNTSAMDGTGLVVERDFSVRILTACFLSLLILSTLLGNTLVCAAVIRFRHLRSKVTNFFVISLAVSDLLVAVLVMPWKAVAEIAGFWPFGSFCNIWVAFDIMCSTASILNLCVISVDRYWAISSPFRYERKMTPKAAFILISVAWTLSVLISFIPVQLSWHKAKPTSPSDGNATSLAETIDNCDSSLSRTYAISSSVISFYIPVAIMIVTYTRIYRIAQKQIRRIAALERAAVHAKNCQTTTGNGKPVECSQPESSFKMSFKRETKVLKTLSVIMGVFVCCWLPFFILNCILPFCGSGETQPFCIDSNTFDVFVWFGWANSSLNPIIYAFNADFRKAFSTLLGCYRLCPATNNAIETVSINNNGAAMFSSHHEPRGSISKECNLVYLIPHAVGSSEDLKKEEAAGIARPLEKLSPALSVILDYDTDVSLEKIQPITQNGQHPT
T9 sequence (P22303 32-614): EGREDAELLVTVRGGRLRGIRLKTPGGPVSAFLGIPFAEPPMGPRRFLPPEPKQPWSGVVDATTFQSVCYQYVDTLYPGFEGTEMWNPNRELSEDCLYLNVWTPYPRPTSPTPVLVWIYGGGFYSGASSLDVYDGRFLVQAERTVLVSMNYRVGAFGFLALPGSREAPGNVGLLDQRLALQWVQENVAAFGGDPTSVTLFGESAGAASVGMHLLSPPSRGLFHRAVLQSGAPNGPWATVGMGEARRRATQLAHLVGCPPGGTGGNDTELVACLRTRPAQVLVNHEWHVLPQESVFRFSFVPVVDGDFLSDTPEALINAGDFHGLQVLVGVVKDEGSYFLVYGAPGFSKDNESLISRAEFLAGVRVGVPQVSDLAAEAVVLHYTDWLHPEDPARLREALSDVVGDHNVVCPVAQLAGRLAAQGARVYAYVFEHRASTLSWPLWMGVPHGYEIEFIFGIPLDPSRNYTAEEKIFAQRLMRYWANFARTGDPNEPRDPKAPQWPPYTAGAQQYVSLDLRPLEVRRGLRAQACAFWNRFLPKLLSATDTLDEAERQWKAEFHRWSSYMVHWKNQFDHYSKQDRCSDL
T1 sequence (P31645 whole entry): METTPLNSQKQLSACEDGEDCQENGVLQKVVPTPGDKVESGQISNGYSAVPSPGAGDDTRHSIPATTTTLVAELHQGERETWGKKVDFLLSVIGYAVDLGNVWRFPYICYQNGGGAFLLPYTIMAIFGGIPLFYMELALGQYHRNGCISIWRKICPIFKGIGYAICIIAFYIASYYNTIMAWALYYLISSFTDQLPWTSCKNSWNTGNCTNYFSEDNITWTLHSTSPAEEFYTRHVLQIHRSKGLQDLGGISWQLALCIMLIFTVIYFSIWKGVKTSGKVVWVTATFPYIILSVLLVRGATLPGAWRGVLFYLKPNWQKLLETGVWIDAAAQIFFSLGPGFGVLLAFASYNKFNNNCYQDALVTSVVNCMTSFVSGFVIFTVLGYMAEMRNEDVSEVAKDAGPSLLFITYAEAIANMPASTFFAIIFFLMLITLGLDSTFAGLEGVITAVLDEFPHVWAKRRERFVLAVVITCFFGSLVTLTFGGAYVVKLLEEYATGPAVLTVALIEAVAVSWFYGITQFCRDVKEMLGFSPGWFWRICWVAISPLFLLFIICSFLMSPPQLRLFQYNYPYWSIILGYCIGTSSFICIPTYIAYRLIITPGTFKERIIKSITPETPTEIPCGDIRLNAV
T10 sequence (P41143 whole entry): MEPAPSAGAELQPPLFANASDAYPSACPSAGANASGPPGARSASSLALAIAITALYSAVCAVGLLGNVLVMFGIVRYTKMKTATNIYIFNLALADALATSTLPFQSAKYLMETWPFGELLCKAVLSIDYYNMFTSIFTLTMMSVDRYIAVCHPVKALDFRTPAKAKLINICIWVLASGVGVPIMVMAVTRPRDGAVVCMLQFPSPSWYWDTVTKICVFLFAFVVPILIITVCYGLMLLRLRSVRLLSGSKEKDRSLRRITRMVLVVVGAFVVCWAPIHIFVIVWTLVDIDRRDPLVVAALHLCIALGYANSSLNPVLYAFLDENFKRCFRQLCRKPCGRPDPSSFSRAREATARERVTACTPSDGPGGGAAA
T6 sequence (P06239 whole entry): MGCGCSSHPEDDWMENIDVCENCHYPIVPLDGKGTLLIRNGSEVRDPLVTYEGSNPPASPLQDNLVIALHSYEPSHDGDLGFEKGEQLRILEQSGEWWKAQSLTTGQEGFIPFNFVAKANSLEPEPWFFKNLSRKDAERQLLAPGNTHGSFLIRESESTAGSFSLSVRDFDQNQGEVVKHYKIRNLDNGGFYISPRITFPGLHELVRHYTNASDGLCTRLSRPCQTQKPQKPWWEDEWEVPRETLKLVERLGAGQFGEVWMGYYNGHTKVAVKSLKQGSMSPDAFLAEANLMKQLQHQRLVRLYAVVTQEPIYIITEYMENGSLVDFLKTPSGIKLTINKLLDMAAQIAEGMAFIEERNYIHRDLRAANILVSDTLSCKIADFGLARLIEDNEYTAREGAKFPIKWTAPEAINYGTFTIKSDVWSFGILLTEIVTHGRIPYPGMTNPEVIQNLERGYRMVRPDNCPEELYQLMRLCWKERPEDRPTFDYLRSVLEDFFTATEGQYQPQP
T7 sequence (P34972 whole entry): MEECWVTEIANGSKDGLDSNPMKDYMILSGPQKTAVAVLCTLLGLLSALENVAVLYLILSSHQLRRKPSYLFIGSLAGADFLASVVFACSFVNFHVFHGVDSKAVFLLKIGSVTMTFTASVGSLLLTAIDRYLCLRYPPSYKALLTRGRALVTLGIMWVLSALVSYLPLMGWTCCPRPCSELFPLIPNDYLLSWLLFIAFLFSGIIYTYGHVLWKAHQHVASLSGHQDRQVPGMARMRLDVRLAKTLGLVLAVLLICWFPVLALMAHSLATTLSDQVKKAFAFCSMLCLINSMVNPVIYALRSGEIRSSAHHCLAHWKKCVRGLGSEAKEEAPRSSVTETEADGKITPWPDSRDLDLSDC

SMILES	perc_max_measured ([1]; maximum measured response) [%]	perc_max_measured [1, 5] [%]	perc_min_measured ([1]; minimum measured response) [%]	perc_min_measured [1, 6] [%]	EC50 [1]	EC90 [1]	clint [3] [uL/min/1E6 cells]	t_half [3] [min]	IC50 (CYP; isoform 1A2) [µM]	potency (CYP; isoform 1A2)	IC50 (CYP; isoform 2C9) [µM]	potency (CYP; isoform 2C9)	IC50 (CYP; isoform 2C19) [µM]	potency (CYP; isoform 2C19)	IC50 (CYP; isoform 2D6) [µM]	potency (CYP; isoform 2D6)	IC50 (CYP; isoform 3A4) [µM]	potency (CYP; isoform 3A4)	perc_inhibition: % inhibition of the binding of a ligand specific for each target, 5-HT transporter (h) (antagonist radioligand) (5-HT transporter (h)) [%]	perc_inhibition (% inhibition of the binding of a ligand specific for each target) (5-HT2A (h)) [%]	also measured
CC(C)[C@H](Nc1ncnc2[nH]ccc12)c1ccc2c(c1)S(=O)(=O)CCC2 [ASAP-0008674]	158.705	129.029	84.767	103.942	> 20 µM	> 20 µM	75.8	9.15	> 50	weak	18.2	weak	15	weak	> 50	weak	3.2	moderate	0	12	clint [2]: 207.0 µL/min/mg; perc_remaining [2]: 3.0%; t_half [2]: 8.1 min; perc_remaining_no_cofactor [2]: 104.0%; perc_inhibition (% inhibition of the binding of a ligand specific for each target) (alpha2A (h)): 10%; perc_inhibition: % inhibition of control enzyme activity, PDE3A (h) (PDE3A (h)): 29%; perc_inhibition (% inhibition of the binding of a ligand specific for each target) (GR (h)): 10%; perc_inhibition: % inhibition of control enzyme activity, Lck kinase (h) (Lck kinase (h)): 10%; perc_inhibition (% inhibition of the binding of a ligand specific for each target) (CB2 (h)): -13%; perc_inhibition (% inhibition of the binding of a ligand specific for each target) [4]: 1%; perc_inhibition: % inhibition of control enzyme activity, acetylcholinesterase (h) (acetylcholinesterase (h)): 12%; perc_inhibition (% inhibition of the binding of a ligand specific for each target) (delta (DOP) (h)): 30%; perc_inhibition (% inhibition of the binding of a ligand specific for each target) (D1 (h)): -4%; CC50 at 24 h (in vitro): > 20 µM
CC(C)[C@H](Nc1ncnc2[nH]c(-c3cnn(C)c3C#N)cc12)c1ccc2c(n1)OCCO2 [ASAP-0010715]	105.242	125.33	1.508	4.425	0.508 µM and 0.819 µM	1.96 µM and 3.36 µM	87.5	7.92	35.2	weak	5.93	moderate	16.9	weak	27.7	weak	3.69	moderate	4	15	perc_inhibition (% inhibition of the binding of a ligand specific for each target) (alpha2A (h)): 7%; perc_inhibition: % inhibition of control enzyme activity, PDE3A (h) (PDE3A (h)): 37%; perc_inhibition (% inhibition of the binding of a ligand specific for each target) (GR (h)): 11%; perc_inhibition: % inhibition of control enzyme activity, Lck kinase (h) (Lck kinase (h)): 20%; perc_inhibition (% inhibition of the binding of a ligand specific for each target) (CB2 (h)): 44%; perc_inhibition (% inhibition of the binding of a ligand specific for each target) [4]: 2%; perc_inhibition: % inhibition of control enzyme activity, acetylcholinesterase (h) (acetylcholinesterase (h)): 15%; perc_inhibition (% inhibition of the binding of a ligand specific for each target) (delta (DOP) (h)): 58%; perc_inhibition (% inhibition of the binding of a ligand specific for each target) (D1 (h)): 27%; CC50 at 24 h (in vitro): > 20 µM
CNCc1cc(-c2cc3c(N[C@@H](c4ccc5c(c4)S(=O)(=O)CCC5)C(C)C)ncnc3[nH]2)co1 [ASAP-0011176]	134.366	113.346	28.123	56.361	11.6 µM and > 20 µM	> 20 µM	15.6	44.5	49.3	weak	5.25	moderate	22.6	weak	9.03	moderate	1.81	moderate-potent	24	29	clint [2]: 54.0 µL/min/mg; perc_remaining [2]: 35.0%; t_half [2]: 30.9 min; perc_remaining_no_cofactor [2]: 101.0%; perc_inhibition (% inhibition of the binding of a ligand specific for each target) (alpha2A (h)): 15%; perc_inhibition: % inhibition of control enzyme activity, PDE3A (h) (PDE3A (h)): -5%; perc_inhibition (% inhibition of the binding of a ligand specific for each target) (GR (h)): 21%; perc_inhibition: % inhibition of control enzyme activity, Lck kinase (h) (Lck kinase (h)): 68%; perc_inhibition (% inhibition of the binding of a ligand specific for each target) (CB2 (h)): -8%; perc_inhibition (% inhibition of the binding of a ligand specific for each target) [4]: 0%; perc_inhibition: % inhibition of control enzyme activity, acetylcholinesterase (h) (acetylcholinesterase (h)): 10%; perc_inhibition (% inhibition of the binding of a ligand specific for each target) (delta (DOP) (h)): 53%; perc_inhibition (% inhibition of the binding of a ligand specific for each target) (D1 (h)): 14%; CC50 at 24 h (in vitro): > 20 µM

From article doi:10.1101/2024.08.19.608619, “Discovery of potent SARS-CoV-2 nsp3 macrodomain inhibitors uncovers lack of translation to cellular antiviral response” (bioRxiv, 2024)
